From ChEMBL document CHEMBL1141982, “A rate determining step change in the pre-steady state of acetylcholinesterase inhibitions by 1,n-alkane-di-N-butylcarbamates” (Bioorg Med Chem Lett, 2005)

Legend:
Acetylcholinesterase [1] = molecular target: T1, Acetylcholinesterase (Homo sapiens, UniProt P22303); assay: Kinetic constant (k2) for acetylcholinesterase
Acetylcholinesterase [2] = molecular target: T1, Acetylcholinesterase; assay: Kinetic constant (k-2) for acetylcholinesterase
Acetylcholinesterase [3] = molecular target: T1, Acetylcholinesterase; assay: Ratio of k2/k-2 for acetylcholinesterase
Acetylcholinesterase [4] = molecular target: T1, Acetylcholinesterase; assay: Inhibition constant for acetylcholinesterase
[5] = Carbamylation rate constant was determined
Acetylcholinesterase [6] = molecular target: T1, Acetylcholinesterase; assay: Dissociation constant for acetylcholinesterase

T1 sequence (P22303 whole entry): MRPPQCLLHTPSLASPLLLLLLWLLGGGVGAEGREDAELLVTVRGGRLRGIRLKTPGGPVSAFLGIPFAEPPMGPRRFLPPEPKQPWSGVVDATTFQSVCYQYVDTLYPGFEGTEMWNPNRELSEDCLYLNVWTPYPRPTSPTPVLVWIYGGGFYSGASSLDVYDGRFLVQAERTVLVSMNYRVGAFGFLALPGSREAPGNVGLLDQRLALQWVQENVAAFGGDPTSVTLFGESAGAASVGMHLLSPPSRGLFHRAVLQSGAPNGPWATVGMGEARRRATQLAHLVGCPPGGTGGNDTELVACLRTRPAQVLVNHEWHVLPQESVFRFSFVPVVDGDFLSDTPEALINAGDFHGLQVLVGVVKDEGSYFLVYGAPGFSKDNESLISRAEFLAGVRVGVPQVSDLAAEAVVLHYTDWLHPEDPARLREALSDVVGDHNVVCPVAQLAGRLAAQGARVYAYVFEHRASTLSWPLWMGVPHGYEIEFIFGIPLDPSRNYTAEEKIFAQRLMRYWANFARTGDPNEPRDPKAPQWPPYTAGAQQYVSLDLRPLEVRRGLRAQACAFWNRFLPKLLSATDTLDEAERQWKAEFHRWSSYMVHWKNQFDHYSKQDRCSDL

## CCCCNC(=O)OCCCCCCCCCCCCCCOC(=O)NCCCC
Acetylcholinesterase [1]
  k2: 5.4 10e-3 1/s
Acetylcholinesterase [2]
  k-2: 2.4 10e-3 1/s
Acetylcholinesterase [3]
  Ratio: 2.3
Acetylcholinesterase [4]
  Ki: 160 nM
[5]
  kc: 4.9 10e-3 1/s
Acetylcholinesterase [6]
  Ks: 0.36 µM

## CCCCNC(=O)OCCCCCOC(=O)NCCCC
Acetylcholinesterase [1]
  k2: 3.4 10e-3 1/s
Acetylcholinesterase [2]
  k-2: 0.62 10e-3 1/s
Acetylcholinesterase [3]
  Ratio: 5.5
Acetylcholinesterase [4]
  Ki: 250 nM
[5]
  kc: 3.3 10e-3 1/s
Acetylcholinesterase [6]
  Ks: 1.4 µM

## CCCCNC(=O)OCCCCCO
Acetylcholinesterase [1]
  k2: 8.1 10e-3 1/s
Acetylcholinesterase [2]
  k-2: 5 10e-3 1/s
Acetylcholinesterase [3]
  Ratio: 2
Acetylcholinesterase [4]
  Ki: 1400 nM
[5]
  kc: 3.5 10e-3 1/s
Acetylcholinesterase [6]
  Ks: 2.2 µM

## CCCCNC(=O)OCCCCCCCCCCO
Acetylcholinesterase [1]
  k2: 7.6 10e-3 1/s
Acetylcholinesterase [2]
  k-2: 3.1 10e-3 1/s
Acetylcholinesterase [3]
  Ratio: 2.5
Acetylcholinesterase [4]
  Ki: 200 nM
[5]
  kc: 3.9 10e-3 1/s
Acetylcholinesterase [6]
  Ks: 0.52 µM

## CCCCNC(=O)OCCOC(=O)NCCCC
Acetylcholinesterase [1]
  k2: 2.8 10e-3 1/s
Acetylcholinesterase [2]
  k-2: 0.35 10e-3 1/s
Acetylcholinesterase [3]
  Ratio: 8
Acetylcholinesterase [4]
  Ki: 360 nM
[5]
  kc: 3 10e-3 1/s
Acetylcholinesterase [6]
  Ks: 2.9 µM

## CCCCNC(=O)OCCCCCCCCCCOC(=O)NCCCC
Acetylcholinesterase [1]
  k2: 4.6 10e-3 1/s
Acetylcholinesterase [2]
  k-2: 2 10e-3 1/s
Acetylcholinesterase [3]
  Ratio: 2.3
Acetylcholinesterase [4]
  Ki: 160 nM
[5]
  kc: 4.1 10e-3 1/s
Acetylcholinesterase [6]
  Ks: 0.37 µM

## CCCCNC(=O)OCCCCCCCCOC(=O)NCCCC
Acetylcholinesterase [1]
  k2: 4.2 10e-3 1/s
Acetylcholinesterase [2]
  k-2: 1.6 10e-3 1/s
Acetylcholinesterase [3]
  Ratio: 2.6
Acetylcholinesterase [4]
  Ki: 150 nM
[5]
  kc: 4 10e-3 1/s
Acetylcholinesterase [6]
  Ks: 0.39 µM

## CCCCNC(=O)OCCCCCCCCCCCCO
Acetylcholinesterase [1]
  k2: 8.1 10e-3 1/s
Acetylcholinesterase [2]
  k-2: 4 10e-3 1/s
Acetylcholinesterase [3]
  Ratio: 2
Acetylcholinesterase [4]
  Ki: 300 nM
[5]
  kc: 4.1 10e-3 1/s
Acetylcholinesterase [6]
  Ks: 0.65 µM

## CCCCNC(=O)OCCCCCCCCCCCCOC(=O)NCCCC
Acetylcholinesterase [1]
  k2: 5 10e-3 1/s
Acetylcholinesterase [2]
  k-2: 2.2 10e-3 1/s
Acetylcholinesterase [3]
  Ratio: 2.2
Acetylcholinesterase [4]
  Ki: 160 nM
[5]
  kc: 4.6 10e-3 1/s
Acetylcholinesterase [6]
  Ks: 0.36 µM

## CCCCNC(=O)OCCCCCCCCCCCCCCCCO
Acetylcholinesterase [1]
  k2: 6.1 10e-3 1/s
Acetylcholinesterase [2]
  k-2: 3 10e-3 1/s
Acetylcholinesterase [3]
  Ratio: 2
Acetylcholinesterase [4]
  Ki: 130 nM
[5]
  kc: 4.9 10e-3 1/s
Acetylcholinesterase [6]
  Ks: 0.37 µM

## CCCCNC(=O)OCCCCCCCCO
Acetylcholinesterase [1]
  k2: 7.2 10e-3 1/s
Acetylcholinesterase [2]
  k-2: 3 10e-3 1/s
Acetylcholinesterase [3]
  Ratio: 2.4
Acetylcholinesterase [4]
  Ki: 360 nM
[5]
  kc: 3.6 10e-3 1/s
Acetylcholinesterase [6]
  Ks: 0.88 µM

## CCCCNC(=O)OCCO
Acetylcholinesterase [1]
  k2: 7.5 10e-3 1/s
Acetylcholinesterase [2]
  k-2: 5 10e-3 1/s
Acetylcholinesterase [3]
  Ratio: 1.5
[5]
  kc: 3.1 10e-3 1/s
Acetylcholinesterase [6]
  Ks: 2.3 µM

## CCCCNC(=O)OCCCCCCCCCCCCCCO
Acetylcholinesterase [1]
  k2: 5.3 10e-3 1/s
Acetylcholinesterase [2]
  k-2: 4 10e-3 1/s
Acetylcholinesterase [3]
  Ratio: 1.3
Acetylcholinesterase [4]
  Ki: 200 nM
[5]
  kc: 4.6 10e-3 1/s
Acetylcholinesterase [6]
  Ks: 0.45 µM

## CCCCNC(=O)OCCCCCCCCCCCCCCCCOC(=O)NCCCC
Acetylcholinesterase [1]
  k2: 6.1 10e-3 1/s
Acetylcholinesterase [2]
  k-2: 3.1 10e-3 1/s
Acetylcholinesterase [3]
  Ratio: 2
Acetylcholinesterase [4]
  Ki: 170 nM
[5]
  kc: 5.3 10e-3 1/s
Acetylcholinesterase [6]
  Ks: 0.34 µM
